The assay has as its target T1, TGF-beta receptor type-1 (Homo sapiens, UniProt P36897).
T1 sequence (P36897 whole entry): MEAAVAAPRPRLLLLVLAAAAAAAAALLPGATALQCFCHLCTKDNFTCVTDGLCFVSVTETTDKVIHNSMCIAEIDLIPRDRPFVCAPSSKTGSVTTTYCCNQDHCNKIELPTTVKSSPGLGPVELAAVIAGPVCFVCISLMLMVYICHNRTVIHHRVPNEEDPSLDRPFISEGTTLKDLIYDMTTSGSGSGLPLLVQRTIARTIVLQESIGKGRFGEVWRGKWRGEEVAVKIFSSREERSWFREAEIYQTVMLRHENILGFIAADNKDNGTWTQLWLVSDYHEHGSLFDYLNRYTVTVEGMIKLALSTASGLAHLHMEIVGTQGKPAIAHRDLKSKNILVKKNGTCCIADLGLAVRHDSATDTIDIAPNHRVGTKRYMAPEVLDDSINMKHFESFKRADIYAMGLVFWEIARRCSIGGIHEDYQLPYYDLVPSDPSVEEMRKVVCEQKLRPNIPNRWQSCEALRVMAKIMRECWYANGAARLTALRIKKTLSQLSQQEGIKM
As to the kind of experiment: LanthaScreen™Eu Kinase Binding Assay TGFBR1 (ALK5): Exemplified compounds were screened in 1% DMSO (final concentration) by 3-fold serial dilutions from 10,000 nM to 0.316 nM to produce an IC50 or at single concentrations of 10,000, 1000 and 100 nM according to the following protocol. To low volume, white 384-well plates (Greiner Cat #784207) add 160 nL 100× compound in 100% DMSO, 3.84 uL kinase buffer (50 mM HEPES, pH 7.5, 0.01% BRIJ-35, 10 mM MgCl2, 1 mM EGTA), 8 uL 2× kinase/antibody mixture in kinase buffer (final ALK5 concentration of 5 nM; final Eu-anti-GST antibody concentration of 2 nM), 4 uL 4× Tracer #178 in kinase buffer (final concentration of 5 nM). Gently shake the plates for 30 seconds and incubate at room temperature for 1 hour before reading fluorescence on a plate reader. Percent inhibition was determined compared to DMSO only control (maximal ALK5 tracer binding) and sigmoidal dose response curve fit yielded IC50 values as indicated in Table 2.

Each structure is given as a SMILES string.

In general, IC50 refers to the concentration needed to halve the response being measured. On to `CC(C)n1ccc(-c2nc(CNc3cc(F)cc(F)c3)[nH]c2-c2ccc3nccnc3c2)n1`, for which the IC50 was determined as 46.4 nM. In the case of `CC(C)n1ccc(-c2nc(CNc3cc(F)cc(C#N)c3)[nH]c2-c2ccc3nccnc3c2)n1` it was 138 nM. In the case of `CC(C)n1ccc(-c2nc(-c3ccc(C(N)=O)cc3)[nH]c2-c2ccc3ncnn3c2)n1` it was less than 1000 nM.

(Values after ChEMBL document CHEMBL5728730, “Tri-substituted imidazoles for the inhibition of TGF beta and methods of treatment” (2021).)
